# Measured values from patent US20260274867A1, “PYRIDO[4,3-D]PYRIMIDINE DERIVATIVES AS MUTANT KRAS G12C INHIBITORS FOR THE TREATMENT OF CANCER” (Frontier Medicines Corporation, priority 2023, published 2026).
# pIC50: −log10 of the molar value.
# Target: T1, KRAS G12C (GMPPNP-loaded, Cys-light, amino acids 1-169) and cRAF Ras-binding domain interaction (Homo sapiens, UniProt P01116, C118S/C51S/C80L/G12C)
# T1 construct: truncated version comprising amino acids 1-169
# Assay: Inhibition of KRAS G12C and cRAF binding (AlphaScreen)
# Conditions: KRAS G12C preloaded with GMPPNP, 2 hours compound incubation, room temperature
# Procedure: The AlphaScreen technology was used to determine IC50s for compound inhibition of KRAS G12C (present as the Cys-light (C51S, C80L and C118S), truncated version comprising amino acids 1-169) and cRAF interaction. Compounds were diluted in 100% DMSO and each compound concentration was spotted at 200 nl/well onto low volume, white 384 well plates. The KRAS G12C contained a biotin-AviTag and the cRaf, as Ras-binding domain (amino acids 50-131, RBD), was GST-tagged. KRAS G12C was preloaded with the GTP analogue Guanosine 5′-[…] (GMPPNP). The KRAS G12C was diluted in 25 mM Hepes, pH 7.4, 150 mM NaCl, 5 mM MgCl2, 0.01% TritonX-100 and 10 μM GMPPNP and added at 10 ul/well to compound-spotted plates resulting in a DMSO concentration of 2%. Plates were incubated for 2 hours. A mixture of RBD and the AlphaScreen streptavidin donor and glutathione acceptor beads diluted in 25 mM Hepes, pH 7.4, 150 mM NaCl, 5 mM MgCl2, 0.01% TritonX-100 and 2% DMSO was then added at 10 ul/well and incubated for 60-90 minutes before the samples were read for emission at 570 nm after excitation of the donor beads at 680 nm. All incubations were performed at room temperature. The final top compound concentration was 50 μM with 1:3 titrations for 10-point dose response curves. Final assay conditions were 0.5 nM KRAS G12C, 0.75 nM RBD and 5 μg/ml each of AlphaScreen donor and acceptor beads. IC50s were determined using nonlinear regression fit of [inhibitor] vs. response (4 parameters).
# A counter assay was also set up to rule out inhibitors of the AlphaScreen technology itself. Compound plates were incubated for 2 hours as above with buffer only. The AlphaScreen beads were added as above except biotin-AviTag-GST was substituted for the RBD. Samples were read and analyzed as above.
# T1 sequence (P01116 1-169 isoform P01116-2 G12C/C51S/C80L/C118S): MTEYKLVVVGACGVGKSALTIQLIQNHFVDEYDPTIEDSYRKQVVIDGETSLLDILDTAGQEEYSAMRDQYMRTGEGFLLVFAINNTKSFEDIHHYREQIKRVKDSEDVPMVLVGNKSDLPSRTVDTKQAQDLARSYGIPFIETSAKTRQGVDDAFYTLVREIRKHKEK
row,SMILES,pIC50
1,Cc1cc(/C=C(\F)C(=O)N2CCN(c3nc(OC[C@@]45CCCN4C[C@H](F)C5)nc4c(F)c(-c5cccc6ccc(F)c(C)c56)ncc34)C[C@@H]2CC#N)nc(C)n1 [Compound 34],> 8.00
2,Cc1cc(/C=C(\F)C(=O)N2CCN(c3nc(OC[C@@]45CCCN4C[C@H](F)C5)nc4c(F)c(-c5cccc6ccc(F)c(Cl)c56)ncc34)C[C@@H]2CC#N)nc(C)n1 [Compound 35],> 8.00
3,Cc1nccc(/C=C(\F)C(=O)N2CC[C@H](O)[C@@H](N(C)c3nc(OC[C@@]45CCCN4C[C@H](F)C5)nc4c(F)c(-c5cccc6cccc(Cl)c56)ncc34)C2)n1 [Compound 36],6.30 to 7.00
4,"Cc1cc(/C=C(\F)C(=O)N2CC[C@@H](N(C)c3nc(OC[C@@]45CCCN4C[C@H](F)C5)nc4c(F)c(-c5cccc6ccc(F)c(F)c56)ncc34)C2)nc(C)n1 [Compound 41, (Z)-1-((R)-3-((7-(7,8-difluoronaphthalen-1-yl)-8-fluoro-2-(((2R,7aS)-2-fluorotetrahydro-1H-pyrrolizin-7a(5H)-yl)methoxy)pyrido[4,3-d]pyrimidin-4-yl)(methyl)amino)pyrrolidin-1-yl)-3-(2,6-dimethylpyrimidin-4-yl)-2-fluoroprop-2-en-1-one]",> 8.00
5,C#Cc1c(F)ccc2cccc(-c3ncc4c(N(C)[C@@H]5CCN(C(=O)/C(F)=C/c6ccnc(C)n6)C5)nc(OC[C@@]56CCCN5C[C@H](F)C6)nc4c3F)c12 [Compound 42],> 8.00
6,Cc1nccc(/C=C(\F)C(=O)N2CC[C@@H](N(C)c3nc(OC[C@@]45CCCN4C[C@H](F)C5)nc4c(F)c(-c5cccc(Cl)c5C(F)(F)F)ncc34)C2)n1 [Compound 43],> 8.00
7,CCc1c(F)ccc2cccc(-c3ncc4c(N(C)[C@@H]5CCN(C(=O)/C(F)=C/c6ccnc(C)n6)C5)nc(OC[C@@]56CCCN5C[C@H](F)C6)nc4c3F)c12 [Compound 45],> 8.00
8,Cc1cc(/C=C(\F)C(=O)N2CC[C@@H](N(C)c3nc(OC[C@@H]4CCCN4C)nc4c(F)c(-c5cccc(Cl)c5C5CC5)ncc34)C2)nc(C)n1 [Compound 50],7.00 to 8.00
9,Cc1cc(/C=C(\F)C(=O)N2CC[C@@H](N(C)c3nc(N4CC(N(C)C)C4)nc4c(F)c(-c5cccc(Cl)c5C5CC5)ncc34)C2)nc(C)n1 [Compound 51],6.30 to 7.00
10,Cc1cc(/C=C(\F)C(=O)N2CC[C@@H](N(C)c3nc(N4CC(N(C)C)C4)nc4c(F)c(-c5cccc6ccc(F)c(F)c56)ncc34)C2)nc(C)n1 [Compound 53],7.00 to 8.00
11,"COc1nc(N2CCN(C(=O)/C(F)=C/c3cc(C)nc(C)n3)[C@@H](CC#N)C2)c2cnc(-c3cccc4ccc(F)c(Cl)c34)c(F)c2n1 [Compound 54, (S,Z)-2-(4-(7-(8-chloro-7-fluoronaphthalen-1-yl)-8-fluoro-2-methoxypyrido[4,3-d]pyrimidin-4-yl)-1-(3-(2,6-dimethylpyrimidin-4-yl)-2-fluoroacryloyl)piperazin-2-yl)acetonitrile]",≤ 6.30
12,Cc1cc(/C=C(\F)C(=O)N2CCN(c3ncnc4c(F)c(-c5cc(O)cc(Cl)c5C5CC5)ncc34)C[C@@H]2CC#N)nc(C)n1 [Compound 58],> 8.00

# More lines, now with the values ahead:
row,pIC50,SMILES
1,> 8.00,"Cc1nccc(/C=C(\F)C(=O)N2CC[C@@H](N(C)c3nc(OC[C@@]45CCCN4C[C@H](F)C5)nc4c(F)c(-c5cccc6cccc(Cl)c56)ncc34)C2)n1 [Compound 37, (Z)-1-((R)-3-((7-(8-chloronaphthalen-1-yl)-8-fluoro-2-(((2R,7aS)-2-fluorotetrahydro-1H-pyrrolizin-7a(5H)-yl)methoxy)pyrido[4,3-d]pyrimidin-4-yl)(methyl)amino)pyrrolidin-1-yl)-2-fluoro-3-(2-methylpyrimidin-4-yl)prop-2-en-1-one]"
2,> 8.00,Cc1nccc(/C=C(\F)C(=O)N2CC[C@@H](N(C)c3nc(OC[C@@]45CCCN4C[C@H](F)C5)nc4c(F)c(-c5cccc6ccc(F)c(F)c56)ncc34)C2)n1 [Compound 38]
3,> 8.00,Cc1nccc(/C=C(\F)C(=O)N2CC[C@@H](N(C)c3nc(OC[C@@]45CCCN4C[C@H](F)C5)nc4c(F)c(-c5cccc(Cl)c5C5CC5)ncc34)C2)n1 [Compound 39]
4,> 8.00,Cc1nccc(/C=C(\F)C(=O)N2CC(CN(C)c3nc(OC[C@@]45CCCN4C[C@H](F)C5)nc4c(F)c(-c5cccc6cccc(Cl)c56)ncc34)C2)n1 [Compound 40]
5,> 8.00,"C#Cc1c(F)ccc2cccc(-c3ncc4c(N(C)[C@@H]5CCN(C(=O)/C(F)=C/c6cc(C)nc(C)n6)C5)nc(OC[C@@]56CCCN5C[C@H](F)C6)nc4c3F)c12 [Compound 44, (Z)-3-(2,6-dimethylpyrimidin-4-yl)-1-((R)-3-((7-(8-ethynyl-7-fluoronaphthalen-1-yl)-8-fluoro-2-(((2R,7aS)-2-fluorotetrahydro-1H-pyrrolizin-7a(5H)-yl)methoxy)pyrido[4,3-d]pyrimidin-4-yl)(methyl)amino)pyrrolidin-1-yl)-2-fluoroprop-2-en-1-one]"
6,> 8.00,"Cc1cc(/C=C(\F)C(=O)N2CC[C@@H](N(C)c3nc(OC[C@@]45CCCN4C[C@H](F)C5)nc4c(F)c(-c5cccc(Cl)c5C5CC5)ncc34)C2)nc(C)n1 [Compound 46, (Z)-1-((R)-3-((7-(3-chloro-2-cyclopropylphenyl)-8-fluoro-2-(((2R,7aS)-2-fluorotetrahydro-1H-pyrrolizin-7a(5H)-yl)methoxy)pyrido[4,3-d]pyrimidin-4-yl)(methyl)amino)pyrrolidin-1-yl)-3-(2,6-dimethylpyrimidin-4-yl)-2-fluoroprop-2-en-1-one]"
7,> 8.00,Cc1cc(/C=C(\F)C(=O)N2CC[C@@H](N(C)c3nc(OC[C@@]45CCCN4C[C@H](F)C5)nc4c(F)c(-c5cccc(Cl)c5C(F)(F)F)ncc34)C2)nc(C)n1 [Compound 47]
8,≤ 6.30,COc1nc(N(C)[C@@H]2CCN(C(=O)/C(F)=C/c3cc(C)nc(C)n3)C2)c2cnc(-c3cccc4ccc(F)c(F)c34)c(F)c2n1 [Compound 48]
9,6.30 to 7.00,"C#Cc1c(F)ccc2cccc(-c3ncc4c(N5CCN(C(=O)/C(F)=C/c6cc(C)nc(C)n6)[C@@H](CC#N)C5)nc(OC)nc4c3F)c12 [Compound 49, (S,Z)-2-(1-(3-(2,6-dimethylpyrimidin-4-yl)-2-fluoroacryloyl)-4-(7-(8-ethynyl-7-fluoronaphthalen-1-yl)-8-fluoro-2-methoxypyrido[4,3-d]pyrimidin-4-yl)piperazin-2-yl)acetonitrile]"
10,> 8.00,Cc1cc(/C=C(\F)C(=O)N2CC[C@@H](N(C)c3nc(OC[C@@H]4CCCN4C)nc4c(F)c(-c5cccc6ccc(F)c(F)c56)ncc34)C2)nc(C)n1 [Compound 52]
11,> 8.00,"COc1nc(N2CCN(C(=O)/C(F)=C/c3cc(C)nc(C)n3)[C@@H](CC#N)C2)c2cnc(-c3cc(O)cc(Cl)c3C3CC3)c(F)c2n1 [Compound 55, (S,Z)-2-(4-(7-(3-chloro-2-cyclopropyl-5-hydroxyphenyl)-8-fluoro-2-methoxypyrido[4,3-d]pyrimidin-4-yl)-1-(3-(2,6-dimethylpyrimidin-4-yl)-2-fluoroacryloyl)piperazin-2-yl)acetonitrile]"
12,6.30 to 7.00,"COc1nc(N(C)[C@@H]2CCN(C(=O)/C(F)=C/c3cc(C)nc(C)n3)C2)c2cnc(-c3cc(O)cc(Cl)c3C3CC3)c(F)c2n1 [Compound 56, (R,Z)-1-(3-((7-(3-chloro-2-cyclopropyl-5-hydroxyphenyl)-8-fluoro-2-methoxypyrido[4,3-d]pyrimidin-4-yl)(methyl)amino)pyrrolidin-1-yl)-3-(2,6-dimethylpyrimidin-4-yl)-2-fluoroprop-2-en-1-one]"
13,> 8.00,Cc1cc(/C=C(\F)C(=O)N2CCN(c3nc(C)nc4c(F)c(-c5cc(O)cc(Cl)c5C5CC5)ncc34)C[C@@H]2CC#N)nc(C)n1 [Compound 57]
